From article PMC7011974, “Benzimidazole derivatives endowed with potent antileishmanial activity” (Journal of Enzyme Inhibition and Medicinal Chemistry, 2017)
Read-outs that look alike come from different tables or passages of the source.

Tests used:
[1] = system: L. tropica promastigotes; experiment: Antileishmanial activity on L. tropica promastigotes (MTT); assay type: cell-based, Leishmania tropica; details: for IC50: Leishmania tropica, 72 h, read-out: IC50 (µM) L. tropica; for Antileishmanial activity in words: promastigotes of L. tropica and/or L. infantum
[2] = system: L. infantum promastigotes; experiment: Antileishmanial activity on L. infantum promastigotes (MTT); assay type: cell-based, Leishmania infantum; details: for IC50: Leishmania infantum, 72 h, read-out: IC50 (µM) L. infantum; for Fold more potent than miltefosine against L. infantum, taking the lowest literature IC50 (15 μM): miltefosine IC50 15 μM from literature
[3] = Cytotoxicity on Vero-76 cells (crystal violet); details: monkey, Vero-76 cells
[4] = system: monkey kidney (Vero76) cells; experiment: Cytotoxicity on Vero-76 cells (crystal violet)
[5] = in vitro; details: monkey
[6] = system: promastigote stage of L. infantum; details: read-out: IC50 of miltefosine versus promastigote stage of L. infantum, literature, cited from earlier work
[7] = system: human microvascular endothelial cell line (HMEC-1); experiment: Cytotoxicity on HMEC-1 cells (MTT); assay type: cell-based; details: for IC50: Homo sapiens, cytotoxicity, HMEC-1 cells, MTT; for SI L. infantum (IC50 HMEC-1/IC50 L. infantum) / SI L. tropica (IC50 HMEC-1/IC50 L. tropica): selectivity index; for Selectivity index (SI) range versus HMEC cells: range over L. tropica and L. infantum
[8] = system: intramacrophagic amastigote stage of L. infantum; experiment: In vitro intracellular amastigote susceptibility assay in THP-1 macrophages; assay type: cell-based, Leishmania infantum
Protocol: (b) In vitro intracellular amastigote susceptibility assays. […] Cell monolayers were then washed and incubated with compounds for 72 h. Slides were fixed with methanol and stained with Giemsa. The percentage of infected macrophages in treated and non-treated cells was determined by light microscopy.

[9] = promastigotes, MTT, starred values mean of two experiments
[10] = fold potency versus miltefosine
[11] = percent of amphotericin B potency, calculated for each experiment

Structure (SMILES)	IC50 [1, 9] [µM]	IC50 amph. B ×100/IC50 compd., L. tropica [1, 11]	IC50 ([2]; promastigotes, MTT) [µM]	IC50 amph. B ×100/IC50 compd., L. infantum [2, 11]	Ratio IC50 miltef./IC50 compd., L. tropica [1, 10]	Ratio IC50 miltef./IC50 compd., L. infantum [2, 10]	IC50 [3] [µM]	SI L. infantum (IC50 Vero76/IC50 L. infantum) ([4]; selectivity index, Vero76)	SI L. tropica (IC50 Vero76/IC50 L. tropica) ([4]; selectivity index, Vero76)	other results
COc1ccc(Cc2nc3cc([N+](=O)[O-])ccc3n2C[C@@H]2CCCN3CCCC[C@H]23)cc1 [Compound 34]										IC50 amph. B ×100/IC50 compd., L. tropica [1]: 2.99; Ratio IC50 miltef./IC50 compd., L. tropica [1]: 12.6; IC50 [1]: 3.44 ± 1.43 µM; IC50 [5]: 49 µM; IC50 amph. B ×100/IC50 compd., L. infantum [2]: 1.77; Ratio IC50 miltef./IC50 compd., L. infantum [2]: 4.7; IC50 [2]: 6.68 ± 1.74 µM; SI L. infantum (IC50 Vero76/IC50 L. infantum) [4]: 7.33; SI L. tropica (IC50 Vero76/IC50 L. tropica) [4]: 14.24
CCCCCCCCCCCCCCCCOP(=O)([O-])OCC[N+](C)(C)C [Miltefosine, miltefosine, reference compound]	43	0.26	31.3 ± 10.4	0.27	1.0	1.0				IC50 ([6]; ref 6c): 16.7 µM; IC50 ([6]; ref 11a): 15 µM; IC50 ([6]; ref 13b): 19.6 µM; IC50 [7]: 99.8 µM; SI L. infantum (IC50 HMEC-1/IC50 L. infantum) [7]: 3.2
COc1ccc(-c2nc3cc(C(F)(F)F)ccc3n2C[C@@H]2CCCN3CCCC[C@H]23)cc1 [Compound 38]	6.54 ± 0.18	2.71	11.2 ± 1.33	1.86	6.6	2.8	75	6.68	11.47	
O=[N+]([O-])c1ccc2c(c1)nc(Cc1ccc(Cl)cc1)n2C[C@@H]1CCCN2CCCC[C@H]12 [Compound 33]										IC50 amph. B ×100/IC50 compd., L. tropica [1]: 2.63; Ratio IC50 miltef./IC50 compd., L. tropica [1]: 11.0; IC50 [1]: 3.92 ± 1.43 µM; IC50 [5]: 68 µM; IC50 amph. B ×100/IC50 compd., L. infantum [2]: 1.73; Ratio IC50 miltef./IC50 compd., L. infantum [2]: 4.6; IC50 [2]: 6.82 ± 1.25 µM; SI L. infantum (IC50 Vero76/IC50 L. infantum) [4]: 9.97; SI L. tropica (IC50 Vero76/IC50 L. tropica) [4]: 17.35
CCCCCCCCCCCCCCCc1n(C)c2ccccc2[n+]1C.[I-] [Compound 8, 1,3-Dimethyl-2-pentadecyl-1 H-benzimidazol-3-ium iodide]	0.19 ± 0.06		0.34 ± 0.12	27.8			5.8			melting point: 169 to 172 °C; Fold more potent than miltefosine against L. infantum, taking the lowest literature IC50 (15 μM) [2]: 43 fold; Fold increased potency with respect to miltefosine, amastigotes ([8]; L. infantum amastigotes in THP-1): 3.35 fold; IC50 ([8]; Leishmania infantum, THP-1 macrophages, 72 h, read-out: IC50 against intramacrophagic amastigote stage of L. infantum): 0.313 µM; IC50 [7]: 0.78 ± 0.06 µM; Selectivity index (SI) range versus HMEC cells [7]: 2.3–7.4; SI L. infantum (IC50 HMEC-1/IC50 L. infantum) [7]: 2.29; SI L. tropica (IC50 HMEC-1/IC50 L. tropica) [7]: 4.10
O=[N+]([O-])c1ccc2c(c1)nc(Cc1ccccc1)n2C[C@@H]1CCCN2CCCC[C@H]12 [Compound 32]										IC50 amph. B ×100/IC50 compd., L. tropica [1]: 1.43; Ratio IC50 miltef./IC50 compd., L. tropica [1]: 6.0; IC50 [1]: 7.22 ± 3.13 µM; IC50 [5]: 50 µM; IC50 amph. B ×100/IC50 compd., L. infantum [2]: 1.24; Ratio IC50 miltef./IC50 compd., L. infantum [2]: 3.3; IC50 [2]: 9.55 ± 3.11 µM; SI L. infantum (IC50 Vero76/IC50 L. infantum) [4]: 5.23; SI L. tropica (IC50 Vero76/IC50 L. tropica) [4]: 6.93
Oc1ccc(-c2nc3cc(C(F)(F)F)ccc3n2C[C@@H]2CCCN3CCCC[C@H]23)cc1 [Compound 37]	13.5 ± 2.21	1.31	17.4 ± 1.49	1.20	3.2	1.8	78	4.49	5.76	
FC(F)(F)c1ccc2c(c1)nc(-c1ccc(Cl)cc1)n2C[C@@H]1CCCN2CCCC[C@H]12 [Compound 36, N-lupinyl-5-trifluoromethyl-2-(4-chlorophenyl)benzimidazole]	12.6 ± 4.54	0.69	12.5 ± 3.51	0.95	3.4	2.5	24	1.92	1.90	

Second part, led by results:

IC50 [1, 9] [µM]	IC50 amph. B ×100/IC50 compd., L. tropica [1, 11]	IC50 ([2]; promastigotes, MTT) [µM]	IC50 amph. B ×100/IC50 compd., L. infantum [2, 11]	Structure (SMILES)	Ratio IC50 miltef./IC50 compd., L. tropica [1, 10]	Ratio IC50 miltef./IC50 compd., L. infantum [2, 10]	IC50 [3] [µM]	SI L. infantum (IC50 Vero76/IC50 L. infantum) ([4]; selectivity index, Vero76)	SI L. tropica (IC50 Vero76/IC50 L. tropica) ([4]; selectivity index, Vero76)	other results
7.31 ± 2.75	2.42	12.1 ± 1.82	1.73	FC(F)(F)c1ccc2c(c1)nc(-c1ccccc1)n2C[C@@H]1CCCN2CCCC[C@H]12 [Compound 35]	5.9	2.6	90	7.44	12.3	
29.6 ± 0.3	0.60	> 55		COc1ccc(-c2nc3cc(C(F)(F)F)ccc3n2CCN(C)C)cc1 [Compound 26]	1.5		> 100		>3.37	Antileishmanial activity in words [1]: moderately active
0.46	17.9	0.27 ± 0.01		CCCCCCCCCCCc1n(C)c2ccccc2[n+]1CCC.[I-] [Compound 4, 1-Methyl-3-propyl-2-undecyl-1 H-benzimidazol-3-ium iodide]	94.0		2.6	9.63	5.65	melting point: 140.2 to 145 °C; Fold more potent than miltefosine against L. infantum, taking the lowest literature IC50 (15 μM) [2]: 55 fold; IC50 [7]: 2.01 ± 0.24 µM; Selectivity index (SI) range versus HMEC cells [7]: 2.3–7.4; SI L. infantum (IC50 HMEC-1/IC50 L. infantum) [7]: 7.44; SI L. tropica (IC50 HMEC-1/IC50 L. tropica) [7]: 4.37
12.1 ± 4.06	1.46	15.9 ± 3.21	1.32	CC(=O)c1ccc2c(c1)nc(Cc1ccc(Cl)cc1)n2C[C@@H]1CCCN2CCCC[C@H]12 [Compound 30]	3.6	2.0	> 100	>6.30	>8.24	
21.1 ± 5.84	0.84	32.7 ± 3.92	0.64	CCN(CC)CCCn1c(-c2ccc(OC)cc2)nc2cc(C(F)(F)F)ccc21 [Compound 27]	2.1	1.0	> 100	>3	>4.74	Antileishmanial activity in words [1]: moderately active
